Molecular target: T1, MAL^TIR (Homo sapiens, UniProt P58753)
T1 construct: MAL (residues 79–221); 6xHis; made in house; host or cells: E. coli BL21 (DE3)
Assay: T‐Surf phage library (P8 and P3) selection against MAL^TIR, four rounds, NGS read counts
Format: binding
Conditions: for P3_MAL Rank (after) / P3_MAL Rank (before): P3 library; for P8_MAL Rank (after) / P8_MAL Rank (before): P8 library; for Population: P8_MAL pool: P8 T-Surf phage library, 4th round of selection against MAL TIR, share of NGS reads
Method in brief: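 Read counts come from NGS of phage pools enriched over four selection rounds on the plate‐coated TIR domain (5 µg mL^−1). Each round: 1 h phage binding at room temperature after 0.2% BSA blocking, Tween washes, acid elution, amplification in E. coli TG1 with M13KO7 helper.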

[1] = selection against MAL, rank by count after grouping
[2] = selection against MAL, rank by count before grouping
[3] = selection against MAL TIR, rank by count after grouping
[4] = selection against MAL TIR, rank by count before grouping
[5] = 4R selection against MAL, rank after grouping
[6] = 4R selection against MAL, rank before grouping
[7] = P3_MAL: rank by count after grouping
[8] = P3_MAL: rank by count before grouping
[9] = selection against MAL, rank after grouping
[10] = selection against MAL, rank before grouping
[11] = P8_MAL: rank by count after grouping
[12] = P8_MAL: rank by count before grouping

T1 sequence (P58753 79-221): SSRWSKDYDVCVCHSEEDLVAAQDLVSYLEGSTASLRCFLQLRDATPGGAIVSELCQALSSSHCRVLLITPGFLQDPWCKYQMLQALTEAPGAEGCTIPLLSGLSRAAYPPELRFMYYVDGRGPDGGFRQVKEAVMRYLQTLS

## VEPTQVRKQSGAVENATG
[1]
  P3_MAL Rank (after): 676
[2]
  P3_MAL Rank (before): 1673

## VEPTQVRKQSGSVKNA
[3]
  P3_MAL Rank (after): 244
[4]
  P3_MAL Rank (before): 1663

## VEPTQVRTQSGAAENA
[1]
  P3_MAL Rank (after): 753
[2]
  P3_MAL Rank (before): 1651

## VEQTQVRKPSGAVENA
[5]
  P3_MAL Rank (after): 627
[6]
  P3_MAL Rank (before): 1687

## VFFWAQLKKVLRNPTR
[5]
  P8_MAL Rank (after): 627
[6]
  P8_MAL Rank (before): 1563

## VFLYTFLINLTHPTNF
  Population: 0.00309%

## VGWFLHTLCQLILQKG
[5]
  P3_MAL Rank (after): 632
[6]
  P3_MAL Rank (before): 1630

## VGWFLHTLSQHILKREK
[7]
  Rank (after): 168
[8]
  Rank (before): 528

## VLHKFIGYLRDALQHR
[7]
  Rank (after): 184
[8]
  Rank (before): 1689

## VLQKFISHLYDFLARK
[3]
  P3_MAL Rank (after): 262
[4]
  P3_MAL Rank (before): 761

## VLQNFISHPYDFLARK
[9]
  P3_MAL Rank (after): 570
[10]
  P3_MAL Rank (before): 1688

## VRHNFIGYLRDALQHR
[7]
  Rank (after): 94
[8]
  Rank (before): 94

## VRHSFAGYRYDALNRL
[3]
  P3_MAL Rank (after): 197
[4]
  P3_MAL Rank (before): 1698

## VRHTFAGYLCVALNRL
[7]
  Rank (after): 431
[8]
  Rank (before): 1700

## VRHTFAGYLYDALHRNRI
[7]
  Rank (after): 404
[8]
  Rank (before): 1703

## VRQNFISHLYDALHRNRI
[7]
  Rank (after): 140
[8]
  Rank (before): 406

## VRVVDDGSVSPLEM
[9]
  P3_MAL Rank (after): 512
[10]
  P3_MAL Rank (before): 1691

## VTKLKKGKSIAPKLLR
[11]
  Rank (after): 469
[12]
  Rank (before): 1562

## WCYERRVSLILRETKV
[11]
  Rank (after): 385
[12]
  Rank (before): 1403

## WDDPWFWDKLHYAMPR
[11]
  Rank (after): 463
[12]
  Rank (before): 1422

## WF*ERLVSLILRDTKV
  Population: 0.00278%

## WFFDGLVSLFLGDTKL
[9]
  P8_MAL Rank (after): 537
[10]
  P8_MAL Rank (before): 1112

## WFFEPLVILIPRDTKV
[11]
  Rank (after): 411
[12]
  Rank (before): 1115

## WFFERLVKLILRDTKV
[1]
  P8_MAL Rank (after): 712
[2]
  P8_MAL Rank (before): 1114

## WFFERLVRPILRGTQG
[9]
  P8_MAL Rank (after): 559
[10]
  P8_MAL Rank (before): 1113

## WFFERLVSLILRDTKV
  Population: 0.0034%

## WFFPETGKIFEARKTI
[1]
  P3_MAL Rank (after): 709
[2]
  P3_MAL Rank (before): 1219

## WFFQEKVKIFEARKTI
[5]
  P3_MAL Rank (after): 669
[6]
  P3_MAL Rank (before): 1224

## WFIIKFRTVLDRVNDV
[11]
  Rank (after): 396
[12]
  Rank (before): 1372

## WFLEQLEKILEAHGTT
[1]
  P8_MAL Rank (after): 715
[2]
  P8_MAL Rank (before): 1353

## WFLFTFLINLTHPTNF
[9]
  P8_MAL Rank (after): 523
[10]
  P8_MAL Rank (before): 1314

## WFLFTVRSAIYAMDQVADT
[11]
  Rank (after): 459
[12]
  Rank (before): 1324

## WFLFTVRSAIYSISRA
[1]
  P8_MAL Rank (after): 692
[2]
  P8_MAL Rank (before): 1346

## WFLFTVRSATYTMSPA
[3]
  P8_MAL Rank (after): 220
[4]
  P8_MAL Rank (before): 1338

## WFLLKFRTVLAHVNDV
[9]
  P8_MAL Rank (after): 511
[10]
  P8_MAL Rank (before): 1354

## WFLSAFLIPMAQLADT
[11]
  Rank (after): 412
[12]
  Rank (before): 1352

## WFLTAFRVAMEQVADT
[5]
  P8_MAL Rank (after): 662
[6]
  P8_MAL Rank (before): 1359

## WFMMKFRTVLDRVPEV
[9]
  P8_MAL Rank (after): 482
[10]
  P8_MAL Rank (before): 1378

## WFMMKFRTVLGKPTM
[3]
  P8_MAL Rank (after): 216
[4]
  P8_MAL Rank (before): 760

## WFMMKFRTVLYHVNYV
[11]
  Rank (after): 398
[12]
  Rank (before): 1377

## WFMMTFRTVLHHVHDV
[11]
  Rank (after): 425
[12]
  Rank (before): 1374

## WFMNVW*A*FCVIPKX
  Population: 0.00432%

## WFNIRLVTVLDHVNDV
[9]
  P8_MAL Rank (after): 573
[10]
  P8_MAL Rank (before): 1391

## WFWDKLKYALPHRYEP
[11]
  Rank (after): 113
[12]
  Rank (before): 556

## WFWEKLRYALTAAANLSGW
[7]
  Rank (after): 149
[8]
  Rank (before): 501

## WFWNNLKYALPLRYDP
[7]
  Rank (after): 451
[8]
  Rank (before): 1266

## WFWVKLLYALTYRPGI
[5]
  P3_MAL Rank (after): 651
[6]
  P3_MAL Rank (before): 1227

## WFYARLVRLILRDPKV
[11]
  Rank (after): 419
[12]
  Rank (before): 1135

## WFYARLVSLLLRDTKV
[11]
  Rank (after): 150
[12]
  Rank (before): 1132

## WFYDRIVSLNGRDKQV
[1]
  P8_MAL Rank (after): 711
[2]
  P8_MAL Rank (before): 1142

## WFYDRLVRLILRDTKV
[5]
  P8_MAL Rank (after): 647
[6]
  P8_MAL Rank (before): 1141

## WFYDRLVSLFLRDPKV
[11]
  Rank (after): 476
[12]
  Rank (before): 1140

## WFYECLVSLILRVTKV
[3]
  P8_MAL Rank (after): 217
[4]
  P8_MAL Rank (before): 1145

## WFYEFLVFLILRDTKV
[3]
  P8_MAL Rank (after): 251
[4]
  P8_MAL Rank (before): 1143

## WFYEHLVSLILRDTKV
  Population: 0.00371%

— article PMC11714206, “Massively Parallel Screening of Toll/Interleukin‐1 Receptor (TIR)‐Derived Peptides Reveals Multiple Toll‐Like Receptors (TLRs)‐Targeting Immunomodulatory Peptides” (Advanced Science, 2024)
